How the values were obtained:
Test in all cases: relative viability (nuclei count vs DMSO), 5 days (fraction); higher = more cells survive
EKVX = test system: EKVX
Method in brief: (§1)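 After 5 days of treatment, lung cancer cells in 1536-well plates were fixed and stained in a single step (final 0.05% Triton X-100, 1% formaldehyde, 1 ug/ml Hoechst) and their nuclei counted on 4× images. Treatment had been applied by pin tool the day after seeding as one drug alone or as a fixed anchor-drug dose with five library-drug doses (not always all listed) in √10 steps. Relative viability is the nuclei count of treated wells divided by that of vehicle wells, and values are medians of duplicate plates.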

LCLC-97TM1 = test system: LCLC-97TM1
Method in brief: as §1

NCI-H647 = test system: NCI-H647
Method in brief: as §1

NCI-H2126 = test system: NCI-H2126
Method in brief: as §1

EPLC-272H = test system: EPLC-272H
Method in brief: as §1

LU99A = test system: LU99A
Method in brief: as §1

BEN = test system: BEN
Method in brief: as §1

NCI-H1975 = test system: NCI-H1975
Method in brief: as §1

NCI-H1395 = test system: NCI-H1395
Method in brief: as §1

NCI-H1666 = test system: NCI-H1666
Method in brief: as §1

NCI-H2342 = test system: NCI-H2342
Method in brief: as §1

NCI-H2087 = test system: NCI-H2087
Method in brief: as §1

## Clc1ccc(Nc2nnc(Cc3ccncc3)c3ccccc23)cc1 [Vatalanib] + Cc1nc(Nc2ncc(C(=O)Nc3c(C)cccc3Cl)s2)cc(N2CCN(CCO)CC2)n1 [Dasatinib] (partner 0.075 µM)
EKVX; first compound 0.04 µM
  relative viability: 0.651
EKVX; first compound 0.1265 µM
  relative viability: 0.5
EKVX; first compound 0.4 µM
  relative viability: 0.585
EKVX; first compound 1.265 µM
  relative viability: 0.397
EKVX; first compound 4 µM
  relative viability: 0.4
LCLC-97TM1; first compound 0.04 µM
  relative viability: 0.994
LCLC-97TM1; first compound 0.1265 µM
  relative viability: 0.621
LCLC-97TM1; first compound 0.4 µM
  relative viability: 0.839
LCLC-97TM1; first compound 1.265 µM
  relative viability: 0.775
LCLC-97TM1; first compound 4 µM
  relative viability: 0.871
NCI-H647; first compound 0.04 µM
  relative viability: 0.205
NCI-H647; first compound 0.1265 µM
  relative viability: 0.184
NCI-H647; first compound 0.4 µM
  relative viability: 0.212
NCI-H647; first compound 1.265 µM
  relative viability: 0.191
NCI-H647; first compound 4 µM
  relative viability: 0.148
NCI-H2126; first compound 0.04 µM
  relative viability: 0.609
NCI-H2126; first compound 0.1265 µM
  relative viability: 0.571
NCI-H2126; first compound 0.4 µM
  relative viability: 0.585
NCI-H2126; first compound 1.265 µM
  relative viability: 0.42
NCI-H2126; first compound 4 µM
  relative viability: 0.503
EPLC-272H; first compound 0.04 µM
  relative viability: 0.441
EPLC-272H; first compound 0.1265 µM
  relative viability: 0.347
EPLC-272H; first compound 0.4 µM
  relative viability: 0.449
EPLC-272H; first compound 1.265 µM
  relative viability: 0.36
EPLC-272H; first compound 4 µM
  relative viability: 0.481
LU99A; first compound 0.04 µM
  relative viability: 0.499
LU99A; first compound 0.1265 µM
  relative viability: 0.58
LU99A; first compound 0.4 µM
  relative viability: 0.685
LU99A; first compound 1.265 µM
  relative viability: 0.44
LU99A; first compound 4 µM
  relative viability: 0.583
BEN; first compound 0.04 µM
  relative viability: 0.308
BEN; first compound 0.1265 µM
  relative viability: 0.271
BEN; first compound 0.4 µM
  relative viability: 0.315
BEN; first compound 1.265 µM
  relative viability: 0.29
BEN; first compound 4 µM
  relative viability: 0.342
NCI-H1975; first compound 0.04 µM
  relative viability: 0.356
NCI-H1975; first compound 0.1265 µM
  relative viability: 0.344
NCI-H1975; first compound 0.4 µM
  relative viability: 0.434
NCI-H1975; first compound 1.265 µM
  relative viability: 0.282
NCI-H1975; first compound 4 µM
  relative viability: 0.287
NCI-H1395; first compound 0.04 µM
  relative viability: 0.456
NCI-H1395; first compound 0.1265 µM
  relative viability: 0.392
NCI-H1395; first compound 0.4 µM
  relative viability: 0.384
NCI-H1395; first compound 1.265 µM
  relative viability: 0.389
NCI-H1395; first compound 4 µM
  relative viability: 0.407
NCI-H1666; first compound 0.04 µM
  relative viability: 0.805
NCI-H1666; first compound 0.1265 µM
  relative viability: 0.714
NCI-H1666; first compound 0.4 µM
  relative viability: 0.883
NCI-H1666; first compound 1.265 µM
  relative viability: 0.791
NCI-H1666; first compound 4 µM
  relative viability: 0.758
NCI-H2342; first compound 0.04 µM
  relative viability: 0.292
NCI-H2342; first compound 0.1265 µM
  relative viability: 0.324
NCI-H2342; first compound 0.4 µM
  relative viability: 0.278
NCI-H2342; first compound 1.265 µM
  relative viability: 0.312
NCI-H2342; first compound 4 µM
  relative viability: 0.295
NCI-H2087; first compound 0.04 µM
  relative viability: 0.937
NCI-H2087; first compound 0.1265 µM
  relative viability: 0.769
